In patent US6288067A, “Prophylactic or therapeutic agents for drug-induced renal injury” (Suntory Limited, priority 1998, dated 2001):

Tests used:
[1] = as reported in Japanese Patent Public Disclosure No. 25323/84; cited from earlier work
[2] = Acute toxicity, oral, rats; conditions: rat, in vivo, po
rats = assay: Acute toxicity, oral, rats; conditions: rats, oral route
renal tissue NOS = assay: Renal cortical NOS activity (3H-citrulline produced from 3H-arginine) in cyclosporin-induced renal injury rats; assay type: in vivo, Sprague-Dawley rats; conditions: orally administered BH4, cyclosporin-treated rats
Method: (§1) Sprague-Dawley rats at the age of 8 to 10 weeks (supplied from Charles River) (300 g) were divided into the following three experimental groups, and examined by comparison. The animals were grown with a low-salt (0.05%) feed during the experimental period of 6 weeks, and treated for 5 weeks from the second to last weeks of the experiment as follows.
(§2) Each group was observed during the experimental period of 6 weeks. The blood pressure, renal cortical NOS activity and blood BP level were determined by the procedures described below. After 6 weeks, blood was collected from the abdominal aorta under anesthesia with phenobarbital, and then the kidney was perfused with physiological saline, then extracted and histologically examined for the effects of BH4 administration on cyclosporin-induced renal injury.
NOS activity was determined by measuring ^3 H-citrulline produced by renal tissue NOS using 3H-arginine.
(§3) Group-to-group statistic analyses were made by two-way ANOVA. In the following analyses, the significance level was p<0.05.

ED-1-positive cells = assay: Renal histochemistry, staining with monoclonal antibody against macrophage cell membrane antigen ED-1; assay type: in vivo, Sprague-Dawley rats; conditions: frozen renal tissues; cyclosporin 15 mg/kg/day s.c.; BH4 group: plus BH4 dihydrochloride 10 mg/kg/day oral
Method: as §1, §2
(§4) Sections were prepared from frozen renal tissues and stained with NADPH-diaphorase for evaluating NOS activity on the tissues. The tissues were also stained with a monoclonal antibody against the macrophage cell membrane antigen ED-1 to examine the NOS isoform.

[3] = Blood pressure by the tail-cuff method in cyclosporin-induced renal injury rats; assay type: in vivo, Sprague-Dawley rats; conditions: until the end of observation (6 weeks); cyclosporin 15 mg/kg/day s.c.; BH4 group: plus BH4 dihydrochloride 10 mg/kg/day oral
Method: as §1, §2
Blood pressure was measured by the tail-cuff method at the start of the experiment and after 2, 4 and 6 weeks.
as §3

[4] = Biopterin (BP) level in blood by HPLC in cyclosporin-induced renal injury rats; assay type: in vivo, Sprague-Dawley rats; conditions: average; cyclosporin 15 mg/kg/day s.c. plus BH4 dihydrochloride 10 mg/kg/day oral
Method: as §1, §2, §3

NOS (NADPH-diaphorase) = assay: Renal histochemistry, NADPH-diaphorase staining; assay type: in vivo, Sprague-Dawley rats
Method: as §1, §2, §4

[5] = test system: cyclosporin-induced renal injury rats; assay: Histopathological findings (arteriolopathy) in renal tissue samples, HE and periodic acid-Shiff staining; assay type: in vivo, Sprague-Dawley rats
Method: as §1, §2
After collecting urine and measuring blood pressure at week 6, the animals were abdominally incised under anesthesia, bled from the abdominal aorta and perfused with physiological saline via this site. The extracted kidney was fixed in a 10% formaldehyde solution, embedded in paraffin, then sliced by a microtome into renal tissue samples of 4 μm. The samples were stained with hematoxylin/eosin (HE) and periodic acid-Shiff. The incidences of pathological findings, i.e. arteriolopathy in the rat renal tissue samples were examined by comparison.
as §3

Row | SMILES | toxicity in words [1] | LD50 [2] [mg/kg] | toxicity in words (rats) | vascular endothelial NOS activity level / function (renal tissue NOS) | invasions of ED-1-positive cells (ED-1-positive cells) | Blood pressure [3] | decrease of blood BP level as compared with CyA group [4] [nmol] | NADPH-diaphorase stainability (NOS (NADPH-diaphorase); frozen renal tissues, cyclosporin 15 mg/kg/day s.c., BH4 group: plus BH4 dihydrochloride 10 mg/kg/day oral) | functions of vascular endothelial NOS (NOS (NADPH-diaphorase); renal histochemistry, cyclosporin plus oral BH4 dihydrochloride) | histopathological findings of arteriolopathy, conclusion in words ([5]; model rats, BH4 orally administered) | arteriolopathy, result in words with significance ([5]; p<0.0001, cyclosporin 15 mg/kg/day s.c., BH4 group: plus BH4 dihydrochloride 10 mg/kg/day oral) | Percentage of the incidence of pathological findings in renal tissues: Arteriolopathy ([5]; ± SE, week 6, control group 0.00 ± 0.00, cyclosporin 15 mg/kg/day s.c., BH4 group: plus BH4 dihydrochloride 10 mg/kg/day oral) [%]
1 | C[C@H](O)[C@H](O)C1CNc2nc(N)[nH]c(=O)c2N1 (stereo partly drawn) [(6R,S)-5,6,7,8-tetrahydrobiopterin] | only slightly toxic |  |  |  |  |  |  |  |  |  |  | 
2 | C[C@H](O)[C@H](O)[C@H]1CNc2nc(N)[nH]c(=O)c2N1 [BH4, (6R)-L-erythro-5,6,7,8-tetrahydrobiopterin] |  | ≥ 2000 | little toxicity | increased vascular endothelial NOS activity level | decreased invasions of ED-1-positive cells | kept at a normal level | 0.002 | recovered the NADPH-diaphorase stainability | normalized the functions of vascular endothelial NOS | remarkably improved histopathological findings | significantly (p<0.0001) inhibited arteriolopathy | 36.814 ± 2.093
